The text below walks through data of US10293055B2, “Acetylenedicarboxyl linkers and their uses in specific conjugation of a cell-binding molecule” (SUZHOU M-CONJ BIOTECH CO., LTD., priority 2015, dated 2019).

Assay [1] relates to NCI-N87, a human gastric carcinoma cell line. The method, then:
(§1) The cell lines used in the cytotoxicity assays were HL-60, a human promyelocytic leukemia cell line; NCI-N87, a human gastric carcinoma cell line; BT-474, a human invasive ductal carcinoma cell line; and SKOV3, a human ovarian carcinoma cell line. For HL-60, NCI-N87, and BT-474 cells, the cells were grown in RPMI-1640 with 10% FBS. For SKOV3 cells, the cells were grown in McCoy's 5A Medium with 10% FBS. To run the assay, the cells (180 μl, 6000 cells) were added to each well in a 96-well plate and incubated for 24 hours at 37° C. with 5% CO2. Next, the cells were treated with test compounds (20 μl) at various concentrations in appropriate cell culture medium (total volume, 0.2 mL). The control wells contain cells and the medium but lack the test compounds. The plates were incubated for 120 hours at 37° C. with 5% CO2. MTT (5 mg/ml) was then added to the wells (20 μl) and the plates were incubated for 1.5 hr at 37° C. The medium was carefully removed and DMSO (180 μl) was added afterward. After it was shaken for 15 min, the absorbance was measured at 490 nm and 570 nm with a reference filter of 620 nm. The inhibition % was calculated according to the following equation: inhibition %=[1-(assay-blank)/(control-blank)]×100.

In assay [2] the test system is SKOV3, a human ovarian carcinoma cell line. The method, then:
as §1

The subject of assay [3] is HL-60, a human promyelocytic leukemia cell line. The settings on record: read-out: IC50 (nM) HL60 cell (Ag+); MTT, 120 hours incubation. The protocol:
as §1

Assay [4] deals with human gastric carcinoma N-87 cell line tumor xenograft. As to conditions: one injection. The protocol: Five-week-old female BALB/c Nude mice (24 animals) were inoculated subcutaneously in the area under the right shoulder with N-87 carcinoma cells (5×10^6 cells/mouse) in 0.1 mL of serum-free medium. The tumors were grown for 8 days to an average size of 130 mm^3. The animals were then randomly divided into 4 groups (6 animals per group). The first group of mice served as the control group and was treated with the phosphate-buffered saline vehicle. […] Three dimensions of the tumor were measured every 4 days and the tumor volumes were calculated using the formula tumor volume=½ (length×width×height). The weight of the animals was also measured at the same time. A mouse was sacrificed when any one of the following criteria was met: (1) loss of body weight of more than 20% from pretreatment weight, (2) tumor volume larger than 1500 mm^3, (3) too sick to reach food and water, or (4) skin necrosis. A mouse was considered to be tumor-free if no tumor was palpable.

Bounds are passed on as bounds.

In the case of T-DM1, the “Specificity for N87 cell” value in assay [1] (IC50 HL60 / IC50 N87) is “over 55”. Further, the IC50 (commonly the midpoint of a concentration-inhibition curve) is 0.27 nM in assay [1] (read-out: IC50 (nM) N87 cell (Ag+), MTT, 120 hours incubation); 0.191 nM in assay [2] (read-out: IC50 (nM) SK-OV-3 cell (Ag+), MTT, 120 hours incubation); more than 15 nM in assay [3]. Besides, the “Specificity for SK-OV-3 cell” value in assay [2] (IC50 HL60 / IC50 SK-OV-3) is given as “over 78”. Further, the “Animals with no tumor measurable” value in assay [4] (5 mg/Kg intravenously, 6 animals per group) is given as 2/6. The “Anti-tumor effect (FIG. 11)” value in assay [4] (5 mg/kg, i.v.) is reported as “did not completely eliminate the tumor”. Besides, the “Duration of tumor growth inhibition” value in assay [4] (5 mg/kg, i.v.) came out at 44 days.
